The nature of test [1]: Ligand binding, UV-difference titration. As to conditions: binding to N,N′-Ac2-L-Lys-D-Ala-D-Ala (3).
For test [2] the following is noted: binding to N,N′-Ac2-L-Lys-D-Ala-D-Ala (3), ref 8a; cited from earlier work.
For test [3] the following is noted: reprogrammed precursor terminus D-Ala-D-Lac; cited from earlier work.
Test [4] has as its system VanA and VanB VRE. The following applies: cited from earlier work.

Marks after values point to notes of the source that are not given here.

In the case of `CN[C@H](CC(C)C)C(=O)N[C@H]1C(=O)N[C@@H](CC(N)=O)C(=O)N[C@H]2C(=O)N[C@H]3C(=O)N[C@H](C(=O)N[C@H](C(=O)O)c4cc(O)cc(O)c4-c4cc3ccc4O)[C@H](O)c3ccc(c(Cl)c3)Oc3cc2cc(c3O[C@@H]2O[C@H](CO)[C@@H](O)[C@H](O)[C@H]2O[C@H]2C[C@](C)(N)[C@H](O)[C@H](C)O2)Oc2ccc(cc2Cl)[C@H]1O` [Vancomycin (1), Vancomycin], the “Association constant for 3, Ka” value in test [1] is reported as 1.8 M^−1 (× 10^5). In addition, the “Association constant for 3, Ka (value in parentheses)” value in test [2] is 2.3–3.9 M^−1 (× 10^5). Besides, the “Fold decrease in antibiotic binding affinity (D-Ala-D-Lac vs D-Ala-D-Ala)” value in test [3] was 1000 fold. The “Fold drop in antimicrobial activity against resistant strains” value in test [4] is 1000 fold.
As to `CN[C@H](CC(C)C)C(=O)N[C@H]1C(=O)N[C@@H](CC(N)=O)C(=O)N[C@H]2C(=O)N[C@H]3C(=O)N[C@H](C(=O)N[C@H](C(=O)O)c4cc(O)cc(O)c4-c4cc3ccc4O)[C@H](O)c3ccc(c(Cl)c3)Oc3cc2cc(c3O)Oc2ccc(cc2Cl)[C@H]1O` [Vancomycin Aglycon (2), Vancomycin Aglycon], the “Association constant for 3, Ka” value in test [1] is listed as 1.4 M^−1 (× 10^5).
